Data taken from patent publication US20240228542A1, “LYTIC DOMAIN FUSION CONSTRUCTS, CHECKPOINT INHIBITORS, AND METHODS OF MAKING AND USING SAME” (A28 Therapeutics Inc., priority 2020, published 2024).

Legend:
[1] = tested on: ID8; assay: Cytotoxicity in ID8 murine ovarian cancer cells (24 h); assay type: cell-based; conditions: ID8, 24 h; read-out: In vitro activity (IC50)
Experimental: (§1) Murine ovarian cancer cell lines (ID8, IG10, IF5, and 2Cl2) were grown in RPMI 1640 media with 10% Fetal Bovine Serum. Cells were typically seeded (3000 cells per well) into 96 well plates and media was replaced after 48 hours of incubation. […] Phor18-LHRH was provided in lyophilized form was dissolved in saline and added to cells. The duration of incubation was 24 h at 37° C. Cell viability was assessed after 24 hours using a luminometric assays (Promega, CellTiter-0Glo 2.0, G9243). Controls contained saline or 0.1% triton as reference for 0 and 100% cell death, respectively.
(§2) Data were processed and analyzed using GraphPad Prism version 7.00 for Windows (GraphPad Software, San Diego California). Statistical analysis for significance was determined by a two-tailed Student's T-test. Each study was conducted to achieve an […] of at least 6.
(§3) In vitro activities were expressed as IC50 values for each cell line, time point and compound tested that were calculated using the Hill equation (Graph Pad Prizm software).

[2] = tested on: murine ovarian cancer cells; assay: EP-100 cytotoxicity and LHRH-R specificity in murine ovarian cancer cells; assay type: cell-based; conditions: ID8 cells, EP-100, 24 hr
Excerpt: To identify the direct effects of EP-100 on cancer cells, murine ovarian cancer cell lines were used for in vitro experiments. […] The level of expression of LHRH-R in murine ovarian cancer cells using RT-PCR and Western blot analysis. […] Indeed, LHRH-R was expressed mainly on the membrane of cancer cells (FIGS. 14D and 14E). Human SKOV3ipl ovarian cancer cells and immortalized murine 3T3 fibroblasts were used as negative controls.
To determine whether the antitumor EP-100 efficacy was specific to LHRH-R expression, we silenced LHRH-R using siRNA (FIG. 15A). […].

[3] = tested on: 2C12; assay: Cytotoxicity in 2C12 murine ovarian cancer cells (24 h); assay type: cell-based; conditions: 2C12, 24 h; read-out: In vitro activity (IC50)
Experimental: as §1, §2, §3

[4] = tested on: IG10 murine ovarian carcinoma; assay: Orthotopic IG10 murine ovarian carcinoma syngeneic model; assay type: in vivo, C57BL/6 mice
Experimental: C57BL/6 female mice were injected orthotopically with luciferase labeled IG10 murine ovarian cancer cell line (1x10^6 cells). Mice were monitored for tumor take using a luminescent imaging system. […] Each treatment and control group consisted of 10 mice. At necropsy on day 28, ascites fluids were removed and measured, and tumors were removed and weighed.
Significance between treatment groups was assessed using Wilcoxon signed Rank test analysis and ANOVA.

[5] = tested on: immune cells in tumor; assay: Immune cell profiling (FACS) of ID8 tumors; assay type: in vivo, C57BL/6 mice
Experimental: Immune Profiling Assay—Immunophenotypic analyses of splenocytes and single cell suspensions from tumors were assessed by flow cytometry. Abs to stain for MDSCs were CD11b-APC (clone M1/70; BD Biosciences), Ly6G-FITC (clone 1A8; BD Biosciences) and Ly6C-PE (clone AL-21; BD Biosciences). For T-cell activation markers, cells were stained with Ab specific for CD4-PE-Cy7 (clone RM4-5; BD Biosciences), CD8-PE-Cy7 (clone 53-6.7; BD Biosciences), CD62L-PE (clone MEL-14; BD Biosciences) and CD44-FITC (clone IM7; Biolegend). Cells were incubated on ice for 30 min, washed and fixed in phosphate buffered saline (PBS) containing 1% formalin for flow cytometric analysis on an LSRII flow cytometer (BD Biosciences).
Immune cell profiling was conducted on ascites (N=3) and tumor tissue (N=3) by processing the samples by the following method and analyzed through Fluorescent Activated Cell Sorting (FACS), see Table 8. Cells were incubated for 30 minutes on ice, washed and fixed in phosphate buffered saline containing 1% formalin for flow cytometric analysis on an LSRII flow cytometer.

[6] = tested on: ID8 ovarian cancer cells; assay: Cytokine and chemokine secretion by ID8 cells (array, RT-PCR, ELISA); assay type: cell-based, murine
Experimental: Cytokine Array—Supernatant from cultured cells was stored at −20° C. for batch analyses to measure cytokines. The mouse cytokine array (R&D Systems, Inc.) was purchased and used to detect the secretion of 111 cytokines in the experiments groups. These Proteome Profiler Arrays were performed according to the manufacturer's protocol.
The effect of EP-100 on cytokines and chemokines was analyzed using a proteome profiler murine cytokine array in the CD8^+ T cell activation in ID8 ovarian cancer cells. […] LIF and CXCL10 secretion were decreased after treatment with EP-100 for 4 hours. LDL receptor secretion was increased by EP-100 at 2 hours and 12 hours, while IL1α, CCL20, VEGF, and IL33 were secreted after EP-100 treatment (FIG. 19 B). Among the cytokines, IL33 inhibited tumor growth and modified the tumor microenvironment. Using RT-PCR and ELISA the induction of IL33 through EP-100 was analyzed. IL33 mRNA expression was increased in 30 minutes after EP-100 treatment, and secretion was increased after 2 hours of EP-100 treatment, and this effect continued through 12 hours (FIGS. 19C and 19D). […] To determine the IL33 role in the tumor microenvironment, we tested the IL33 effect on T cell differentiation in vitro. We isolated naïve CD4^+ T cells from mouse […], and further cultured for 5 days in CD3 and CD28, and mouse IL-2 containing media to differentiated CD8^+ T cell. LHRH-R mRNA expression and EP-100-induced cytoic effect was lower in both naïve T cells and CD8^+ T cells than in ID8 cells (FIGS. 20A and 20B).

[7] = tested on: PD-L1; assay: PD-L1 expression in ID8 and IG10 cells after EP-100 (RT-PCR, Western blot); assay type: cell-based, murine
Experimental: To determine the potential role of EP-100 in immune activation, the effect on PD-L1 expression in murine ovarian cancer cells was determined in the presence of EP-100. […] PD-L1 mRNA was increased with treatment with as low as 0.5 μm EP-100 for 4 hours, and PD- L1 protein was increased after 6 hours of treatment.

KFAKFAKKFAKFAKKFAKQHWSYGLRPG [Phor18-LHRH]
IC50 [1]: 1370 nM | viability of cells in which LHRH-R was silenced (siRNA) [2]: remained viable | IC50 [3]: 1020 nM | relative reduction of ascites volumes [4]: 60.2% | tumor weights at necropsy ([4]; Mean±SEM, N=10, controls 1.04±0.09 g): 0.45 ± 0.08 g | ascites volumes ([4]; Mean±SEM, N=10, vehicle 9.06±1.3 ml): 3.6 ± 0.7 mL | increase of CD8+ T/Treg ratio ([5]; tumor (tumor and ascites)): 8 fold | Regulatory T cells (Treg) ([5]; tumor, % of CD45+ cells, controls 1.14±0.09%): 0.95±0.15% | Monocytic myeloid suppressor cells (mMDSC) ([5]; tumor, % of CD45+ cells, controls 1.5±0.006%): 1.015±0.15% | Macrophages ([5]; tumor, % of CD45+ cells, controls 1.6±0.05%): 10.1±0.13% | Dendritic cells (DC) ([5]; tumor, % of CD45+ cells, controls 1.88±0.03%): 5.12±0.34% | CD8+ T cells ([5]; tumor, % of CD45+ cells, controls 2.6±0.4%): 15.5±0.8% | Natural killer (NK) cells ([5]; tumor, % of CD45+ cells, controls 3.76±[…]): 10.67±1.4% | B cells ([5]; tumor, % of CD45+ cells, controls 12.14±0.9%): 10.1±2.4% | CD45+ cell fraction of live cells ([5]; tumor, Mean±SEM, controls 8.16±[…]): 26.1±5.2% | ratio of CD8+ T cells to regulatory T cells ([5]; tumor, controls 2.27±0.26): 15.5±2.5 | time to increased IL33 secretion ([6]; ID8 cells, ELISA, continued through 12 hours): 2 h | time to increased IL33 mRNA expression ([6]; ID8 cells, RT-PCR): 30 min | secretion of cytokines and chemokines (array) ([6]; ID8 cells, LIF, CXCL10, IL1α, CCL20, VEGF, IL33, LDL receptor): increased secretion of various molecules | IL33 secretion ([6]; in vitro, FIG. 19D): IL33 secretion was increased by EP-100 | lowest concentration increasing PD-L1 mRNA ([7]; 4 hours): 0.5 μm | PD-L1 mRNA and protein levels ([7]; ID8 and IG10 cells, protein after 6 hours): both PD-L1 mRNA and protein levels were increased
